1 sequence from patent US20200282010A1, “IMMUNOGENIC COMPOSITIONS AND USES THEREFOR” (Epiaxis Therapeutics Pty Ltd, priority 2017, published 2020) can be followed below.

In one assay the target is T1, PKC-β1 (Homo sapiens, UniProt P05771).
T1 construct: endogenous in cells; host or cells: MCF7
The experiment in a line: Nuclear localization of PKC-β1 (Fn/c, immunofluorescence), specificity. The note with it: MCF7 breast cancer cell line; FIG. 1D. The class given is cell-based. The source says:
FIG. 1 is a graphical, schematic and photographic representation showing that PKC-θ can be targeted for therapeutic intervention. A) Depicts the strength of binding of recombinant purified His6-PKC-θ to increasing concentrations of different subunits and subunit combinations (α2, α2β1, and β1) of the importin α/β heterodimer nuclear transport receptor using an AlphaScreen® binding assay as described in Wagstaff et al. (2011. Journal of Biomolecular Screening 16 (2):192-200). B-C) Depicts protein structure of PKC-θ indicating binding locations for the PKC-θ peptide inhibitor, PKCθi (RKEIDPPFRPKVK), including the nuclear localization sequence (NLS) of PKC-θ. D) The specificity of PKCθi was examined on cells treated with this peptide inhibitor. Cells were screened with primary antibodies to PKC-θ (T538p), PKC-β2, PKC-β1, PKC-α, PKC-ε and PKC-γ. The nuclear to cytoplasmic fluorescence ratio (Fn/c) using the equation: Fn/c=(Fn−Fb)/(Fc−Fb), where Fn is nuclear fluorescence, Fc is cytoplasmic fluorescence, and Fb is background fluorescence was used to determine the impact on nuclear translocation/localization. […] EC^50 of inhibitors calculated using GraphPad PRISM software. F) The PKC-θ kinase activity was measured using the PKC kinase activity kit from ENZO life sciences and recombinant PKC-θ; C27 is an inhibitor of PKC-θ kinase activity, which is disclosed in Jimenez et al. (2013. […]

The subject of assay [1] is PBMC cells isolated from CR and PD melanoma liquid biopsies. The experiment in a line: RT-PCR expression of IL-2, IFN-γ and TNF-α in PBMCs from melanoma patient liquid biopsies. The class given is cell-based, human. The note with it: FIG. 2B. How it is done:
FIG. 2 is a photographic and graphical representation depicting a PKC-θ resistance signature in CD8^+ T-cells from BRAF negative melanoma patients. A) Melanoma patient formalin-fixed paraffin-embedded (FFPE) tissue from primary tumor baseline biopsy for either a complete response (CR), stable disease (SD) or progressive disease (PD) was processed by 3D high resolution microscopy using a Leica Bond RX Stainer. FFPE tissues were fixed and immunofluorescence microscopy was performed probing with primary antibodies to anti-PD1, anti-PKC-θ (T538p) and anti-CD8 with DAPI. Representative images for each dataset are shown. Graph plots represent the TCFI values for CD8, TNFI for PKC-θ and TCFI for PD1 measured using ImageJ minus background (N=40 cells per a patient sample). B) Peripheral blood mononuclear cells (PBMCs) isolated from melanoma patient liquid biopsies were pre-clinically screened with either control or PKCθi nuclear peptide inhibitor. PBMC Samples were screened in triplicate for expression of IL-2, IFN-γ and TNF-α. C) Melanoma patient FFPE tissue from primary tumor baseline biopsy for CR, SD and two PD cohorts defined by responder or resistant to Dual Immunotherapy was processed by 3D high resolution microscopy using a Leica Bond RX Stainer. FFPE tissues were fixed and immunofluorescence microscopy was performed probing with primary antibodies to anti-PD1, anti-PKC-θ (T538p), anti-CD8 and anti-ZEB1 with DAPI. Representative images for each dataset are shown. Graph plots represent the TCFI values for CD8, TNFI for PKC-θ and TNFI for ZEB1 measured using ImageJ minus background (N=40 cells per a patient sample).
IL-2, IFN-γ and TNF-α are markers of T-cell activation and effector capacity whereas ZEB1 is a negative regulator of T-cell responses and is linked with T-cell effector inhibition as well as cancer progression. Accordingly, the expression of these biomarkers was investigated in the context of modulating the PKC-θ pathway. Employing RT-PCR, the present inventors profiled expression of the effect of PKCθi in PBMC cells isolated from CR and PD melanoma liquid biopsies.

T1 sequence (P05771 whole entry): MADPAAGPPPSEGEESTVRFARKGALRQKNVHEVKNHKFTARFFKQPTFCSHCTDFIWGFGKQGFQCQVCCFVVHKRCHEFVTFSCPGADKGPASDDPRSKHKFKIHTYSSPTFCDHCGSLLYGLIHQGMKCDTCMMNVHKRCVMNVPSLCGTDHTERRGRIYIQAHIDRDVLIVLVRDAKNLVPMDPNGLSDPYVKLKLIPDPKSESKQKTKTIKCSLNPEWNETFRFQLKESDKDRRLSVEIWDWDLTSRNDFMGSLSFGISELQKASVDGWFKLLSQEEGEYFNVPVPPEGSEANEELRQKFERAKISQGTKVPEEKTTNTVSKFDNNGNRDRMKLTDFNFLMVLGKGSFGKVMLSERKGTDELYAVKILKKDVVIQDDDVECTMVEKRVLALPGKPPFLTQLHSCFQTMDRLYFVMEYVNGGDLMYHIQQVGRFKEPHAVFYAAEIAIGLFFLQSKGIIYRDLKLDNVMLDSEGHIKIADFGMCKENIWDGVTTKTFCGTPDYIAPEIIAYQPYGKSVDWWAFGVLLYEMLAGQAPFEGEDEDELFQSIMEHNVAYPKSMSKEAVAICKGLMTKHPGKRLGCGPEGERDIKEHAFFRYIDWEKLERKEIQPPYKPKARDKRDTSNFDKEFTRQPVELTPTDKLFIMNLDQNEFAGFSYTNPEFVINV

Take RKEIDPPFRPKVK [PKCθi]: the “nuclear localization of PKC-β1” value in the assay with PKC-β1 is on record as “no effect”. In assay [1] (CR patient cohort), the “expression of IFN-γ” value is given as “some induction”, the “expression of IL-2” value is recorded as “some induction” and the “expression of TNF-α” value is reported as “some induction”. In assay [1] (PD patient cohort), the “expression of IFN-γ” value is given as “significantly induced”, the “expression of IL-2” value is reported as “significantly induced” and the “expression of TNF-α” value is reported as “significantly induced”.
